Where two headings read alike, the source gives them in different places. Marks after values point to notes of the source that are not given here.
Columns and labels:
[1] = tested on: rat hepatocytes; assay: Metabolism in rat hepatocytes; type: in vitro ADME; conditions: 2.5 μmol/L (10 μmol Gd/L), 4 hours
[2] = tested on: GS9L (rat glioblastoma) brain tumors; assay: Contrast-enhanced MRI of GS9L brain tumors in rats; type: in vivo; conditions: GS9L rats n = 4, 1.5 T, 5 minutes p.i., both 0.1 mmol Gd/kg bw, intraindividual
[3] = Partition coefficient; type: physicochemical; conditions: pH 7.4, room temperature
[4] = type: physicochemical; conditions: 37°C, pH 7.4, 21 days (3 weeks)
[5] = r1-relaxivity at 1.41 T; type: physicochemical, human; conditions: for r1-Relaxivity in Human Plasma at 37°C, 1.5 T (per molecule): pH 7.4, per molecule
[6] = Blood-to-plasma partition ratio; type: in vitro ADME; conditions: 6 human donors, 0.25 mmol Gd/L, 60 minutes, 37°C, mean ± SD
[7] = tested on: plasma proteins; assay: Protein binding in rat plasma, equilibrium dialysis; type: in vitro ADME; conditions: 3 μmol Gd/L, 37°C, 2 hours
[8] = tested on: plasma proteins; assay: Protein binding in human plasma, equilibrium dialysis; type: in vitro ADME; conditions: 3 μmol Gd/L, 37°C, 2 hours
[9] = HPLC-ICP-MS analysis of rat urine for metabolites; type: in vivo; conditions: rat urine up to 6 hours after single IV 0.1 mmol Gd/kg bw
[10] = r1-relaxivity at 3.0 T in human plasma; type: physicochemical; conditions: for r1-Relaxivity in Human Plasma at 37°C, 3.0 T (per Gd): pH 7.4, per Gd; for r1-Relaxivity in Human Plasma at 37°C, 3.0 T (per molecule): pH 7.4, per molecule
[11] = tested on: human hepatocytes; assay: Metabolism in human hepatocytes; type: in vitro ADME; conditions: 2.5 μmol/L (10 μmol Gd/L), 4 hours
[12] = Nuclear magnetic relaxation dispersion; type: physicochemical; conditions: 37°C
[13] = type: physicochemical; conditions: after 3 days
[14] = Osmolality of the formulation; type: physicochemical; conditions: formulation 0.3 mol Gd/L
[15] = rat
[16] = Viscosity of the formulation; type: physicochemical; conditions: formulation 0.3 mol Gd/L
[17] = Number of inner sphere water molecules; type: physicochemical; conditions: per Gd
[18] = IV 0.1 mmol Gd/kg bw
[19] = Solubility in buffer solution; type: physicochemical; conditions: buffer 10 mM Tris-HCl, pH 7.4, room temperature (20°C), 24 hours
[20] = 7 days after single IV 0.1 mmol Gd/kg bw
[21] = 7 days after single IV 0.1 mmol Gd/kg bw, LLOQ 0.05
[22] = rat, 3-compartment model, listed as BAY 1747846

SMILES: CC(C(=O)NCC(=O)NCC(CNC(=O)CNC(=O)C(C)N1CCN(CC(=O)[O-])CCN(CC(=O)[O-])CCN(CC(=O)[O-])CC1)(CNC(=O)CNC(=O)C(C)N1CCN(CC(=O)[O-])CCN(CC(=O)[O-])CCN(CC(=O)[O-])CC1)CNC(=O)CNC(=O)C(C)N1CCN(CC(=O)[O-])CCN(CC(=O)[O-])CCN(CC(=O)[O-])CC1)N1CCN(CC(=O)[O-])CCN(CC(=O)[O-])CCN(CC(=O)[O-])CC1.[Gd+3].[Gd+3].[Gd+3].[Gd+3] (stereo not shown) [Gadoquatrane, tetragadolinium [4,10-bis(carboxylatomethyl)-7-{3,6,12,15-tetraoxo-16-[4,7,10-tris-(carboxyl-atomethyl)-1,4,7,10-tetraazacyclododecan-1-yl]-9,9-bis({[({2-[4,7,10-tris-(carboxylatomethyl)-1,4,7,10-tetraazacyclododecan-1-yl]propanoyl}amino)acetyl]-amino}methyl)-4,7,11,14-tetraazahepta-decan-2-yl}-1,4,7,10-tetraazacyclododecan-1-yl]acetate]
- In vitro uptake or metabolic degradation in hepatocytes [1]: No in vitro uptake or metabolic degradation
- CNR (tumor-to-brain) compared with gadobutrol [2]: clearly higher CNR
- Log P (1-Butanol/Buffer) [3]: −4.32
- Total Gd release after 21 days in human serum [4]: no release of Gd^3+
- r1-Relaxivity in Human Plasma at 37°C, 1.5 T (per Gd) ([5]; 60 MHz (1.41 T), 37°C, pH 7.4, per Gd, mean ± SD, n = 6 batches): 11.8 ± 0.3 mM⁻¹ s⁻¹
- r1-Relaxivity in Human Plasma at 37°C, 1.5 T (per molecule) ([5]; 60 MHz (1.41 T), 37°C): 47.2 ± 1.0 mM⁻¹ s⁻¹
- r1-Relaxivity in Human Plasma at 37°C, 1.5 T (per molecule) ([5]; 60 MHz (1.41 T), 37°C, listed as gadoquatrane): 47.2 mM⁻¹ s⁻¹
- r1-relaxivity in human plasma, fold higher per Gd compared with established GBCAs ([5]; human plasma, per Gd, vs established (m)GBCAs): more than 2 fold
- Blood-to-plasma ratio [6]: 0.62 ± 0.06
- Free fraction in plasma (fraction unbound) [7]: 93%
- Free fraction in plasma (fraction unbound) [8]: 96%
- Metabolic stability / formation of metabolites in urine [9]: high metabolic stability and no hint of formation of metabolites
- r1-Relaxivity in Human Plasma at 37°C, 3.0 T (per Gd) [10]: 10.5 ± 0.3 mM⁻¹ s⁻¹
- r1-Relaxivity in Human Plasma at 37°C, 3.0 T (per Gd) ([10]; listed as gadoquatrane): 10.5 mM⁻¹ s⁻¹
- r1-Relaxivity in Human Plasma at 37°C, 3.0 T (per molecule) [10]: 41.9 ± 0.6 mM⁻¹ s⁻¹
- r1-Relaxivity in Human Plasma at 37°C, 3.0 T (per molecule) ([10]; listed as gadoquatrane): 41.9 mM⁻¹ s⁻¹
- In vitro uptake or metabolic degradation in hepatocytes [11]: No in vitro uptake or metabolic degradation
- NMRD r1-relaxivity per Gd, fold higher compared with gadobutrol, in human plasma ([12]; human plasma, up to 200 MHz (4.7 T)): 2 fold
- NMRD r1-relaxivity per Gd, fold higher compared with gadobutrol, in water ([12]; water, 20–200 MHz (0.47–4.7 T)): ~ 3 fold
- Decrease of the T1 relaxation rates (R1) in zinc transmetallation assay [13]: no Gd^3+ release
- Decrease of the T1 relaxation rates (R1) in zinc transmetallation assay ([13]; listed as gadoquatrane): no change
- Osmolality at 37°C [14]: 294 (iso-osmolar to blood) mosmol/kg H2O
- Osmolality at 37°C ([14]; listed as gadoquatrane): 294 mosmol/kg H2O
- Gadolinium concentration, Bone marrow [15, 20]: 0.413 ± 0.048 nmol Gd/g wet tissue
- Gadolinium concentration, Carcass [15, 20]: 0.693 ± 0.126 nmol Gd/g wet tissue
- Gadolinium concentration, Heart [15, 20]: 0.133 ± 0.014 nmol Gd/g wet tissue
- Gadolinium concentration, Intestine [15, 20]: 0.316 ± 0.120 nmol Gd/g wet tissue
- Gadolinium concentration, Kidney [15, 20]: 20.3 ± 1.37 nmol Gd/g wet tissue
- Gadolinium concentration, Liver [15, 20]: 0.564 ± 0.065 nmol Gd/g wet tissue
- Gadolinium concentration, Lung [15, 20]: 0.359 ± 0.024 nmol Gd/g wet tissue
- Gadolinium concentration, Mesenterial lymph nodes [15, 20]: 1.20 ± 0.336 nmol Gd/g wet tissue
- Gadolinium concentration, Muscle [15, 20]: 0.119 ± 0.021 nmol Gd/g wet tissue
- Gadolinium concentration, Skin [15, 20]: 0.271 ± 0.044 nmol Gd/g wet tissue
- Gadolinium concentration, Spleen [15, 20]: 0.654 ± 0.175 nmol Gd/g wet tissue
- Gadolinium concentration, Stomach [15, 20]: 0.182 ± 0.023 nmol Gd/g wet tissue
- Gadolinium concentration, Blood [15, 21]: <0.05* nmol Gd/g wet tissue
- Gadolinium concentration, Brain [15, 21]: <0.08‡ nmol Gd/g wet tissue
- Gadolinium concentration, Bone ([15]; femur, 7 days after single IV 0.1 mmol Gd/kg bw): 0.470 ± 0.201 nmol Gd/g wet tissue
- Amount of Gd recovered in Feces, 0–5 d ([15]; in vivo, iv): 1.35% ± 0.6%
- Amount of Gd recovered in Urine, 0–1 d ([15]; in vivo, iv): 96.4% ± 3.8%
- Amount of Gd recovered in Urine, 0–5 d ([15]; in vivo, iv): 96.9% ± 3.7%
- Total recovery of Gd, 0–7 d ([15]; in vivo, iv): 98.8% ± 6.2%
- Excreted within 7 days ([15]; single IV 0.1 mmol Gd/kg bw): > 99 % of the injected dose
- Viscosity at 37°C [16]: 1.22 mPa·s
- No. Inner Sphere Water Molecules (q) [17]: q = 1
- No. Inner Sphere Water Molecules (q) ([17]; listed as gadoquatrane): 1
- AUC^∞ ([18]; rat plasma): 183 ± 11 (5.8%) μmol·h/L
- γ-AUC ([18]; rat plasma): 1 % of AUC^∞
- γ-AUC ([18]; rat plasma, listed as BAY 1747846): 1.2 % of AUC^∞
- Clplasma ([18]; rat): 0.55 ± 0.03 (5.8%) L/h/kg
- Vss ([18]; rat): 0.33 ± 0.05 (14%) L/kg
- α t1/2 ([18]; rat, 3-compartment model, mean estimate ± SD (CV%)): 6.3 ± 1.5 (24%) min
- β t1/2 [18, 22]: 25 ± 1.6 (6.4%) min
- γ t1/2 [18, 22]: 13 ± 2.9 (22%) h
- Solubility [19]: 1.43 mol Gd/L

— PMC9444293 (Investigative Radiology, 2022)
